Test system: MCH receptors
Experiment: MCH receptor activity class (method not given)
Details: class 1-3 by percent of control at 10^-7 M or IC50

Row | SMILES | class
1 | CN(C)c1nc(N[C@H]2CC[C@@H](NC(=O)c3csc(-c4cccs4)n3)CC2)nc2c1CCCC2 [compound 581] | 2 (Class 2: The value of percent of control at 10^−7 M was from 40% to 60% or the value of IC′50 was from 50 nM to 200 nM.)
2 | COc1cccc(C(=O)NC[C@H]2CC[C@@H](Nc3nc4c(c(N(C)C)n3)CCCC4)CC2)c1 [compound 582] | 3 (Class 3 The value of percent of control at 10^−7 M was more than 60% or the value of IC50 was more than 200 nM.)
3 | CN(C)c1nc(N[C@H]2CC[C@@H](CNC(=O)c3cccc(Br)c3)CC2)nc2c1CCCC2 [compound 583, 3-bromo-N-[(cis-4-{[4-(dimethylamino)-5,6,7,8-tetrahydroquinazolin-2-yl]amino}cyclohexyl)methyl]benzamide] | 2 (Class 2: The value of percent of control at 10^−7 M was from 40% to 60% or the value of IC′50 was from 50 nM to 200 nM.)
4 | CN(C)c1nc(N[C@H]2CC[C@@H](CNC(=O)c3ccc(Br)cc3)CC2)nc2c1CCCC2 [compound 584] | 3 (Class 3 The value of percent of control at 10^−7 M was more than 60% or the value of IC50 was more than 200 nM.)
5 | CN(C)c1nc(N[C@H]2CC[C@@H](CNC(=O)c3ccc4nonc4c3)CC2)nc2c1CCCC2 [compound 585] | 3 (Class 3 The value of percent of control at 10^−7 M was more than 60% or the value of IC50 was more than 200 nM.)
6 | CN(C)c1nc(N[C@H]2CC[C@@H](CNC(=O)c3cccc(Cl)c3)CC2)nc2c1CCCC2 [compound 586] | 3 (Class 3 The value of percent of control at 10^−7 M was more than 60% or the value of IC50 was more than 200 nM.)
7 | CN(C)c1nc(N[C@H]2CC[C@@H](CNC(=O)c3ccc(Cl)cc3)CC2)nc2c1CCCC2 [compound 587] | 3 (Class 3 The value of percent of control at 10^−7 M was more than 60% or the value of IC50 was more than 200 nM.)
8 | CN(C)c1nc(N[C@H]2CC[C@@H](CNC(=O)/C=C/c3ccccc3)CC2)nc2c1CCCC2 [compound 588] | 3 (Class 3 The value of percent of control at 10^−7 M was more than 60% or the value of IC50 was more than 200 nM.)
9 | CN(C)c1nc(N[C@H]2CC[C@@H](CNC(=O)c3ccc(Cl)c([N+](=O)[O-])c3)CC2)nc2c1CCCC2 [compound 589] | 3 (Class 3 The value of percent of control at 10^−7 M was more than 60% or the value of IC50 was more than 200 nM.)
10 | CN(C)c1nc(N[C@H]2CC[C@@H](CNC(=O)Cc3ccc(Cl)cc3)CC2)nc2c1CCCC2 [compound 590] | 3 (Class 3 The value of percent of control at 10^−7 M was more than 60% or the value of IC50 was more than 200 nM.)
11 | CN(C)c1nc(N[C@H]2CC[C@@H](CNC(=O)c3cccc(C#N)c3)CC2)nc2c1CCCC2 [compound 591] | 3 (Class 3 The value of percent of control at 10^−7 M was more than 60% or the value of IC50 was more than 200 nM.)
12 | CN(C)c1nc(N[C@H]2CC[C@@H](CNC(=O)c3cc(Cl)cc(Cl)c3)CC2)nc2c1CCCC2 [compound 592] | 3 (Class 3 The value of percent of control at 10^−7 M was more than 60% or the value of IC50 was more than 200 nM.)
13 | CN(C)c1nc(N[C@H]2CC[C@@H](CNC(=O)c3ccc(Cl)c(Cl)c3)CC2)nc2c1CCCC2 [compound 593] | 3 (Class 3 The value of percent of control at 10^−7 M was more than 60% or the value of IC50 was more than 200 nM.)
14 | CN(C)c1nc(N[C@H]2CC[C@@H](CNC(=O)C(c3ccccc3)c3ccccc3)CC2)nc2c1CCCC2 [compound 594] | 3 (Class 3 The value of percent of control at 10^−7 M was more than 60% or the value of IC50 was more than 200 nM.)
15 | CN(C)c1nc(N[C@H]2CC[C@@H](CNC(=O)c3ccc(F)c(F)c3)CC2)nc2c1CCCC2 [compound 595] | 3 (Class 3 The value of percent of control at 10^−7 M was more than 60% or the value of IC50 was more than 200 nM.)
16 | CN(C)c1nc(N[C@H]2CC[C@@H](CNC(=O)c3cc(F)cc(F)c3)CC2)nc2c1CCCC2 [compound 596] | 3 (Class 3 The value of percent of control at 10^−7 M was more than 60% or the value of IC50 was more than 200 nM.)
17 | COc1ccc(OC)c(CC(=O)NC[C@H]2CC[C@@H](Nc3nc4c(c(N(C)C)n3)CCCC4)CC2)c1 [compound 597] | 3 (Class 3 The value of percent of control at 10^−7 M was more than 60% or the value of IC50 was more than 200 nM.)
18 | CCSc1ncccc1C(=O)NC[C@H]1CC[C@@H](Nc2nc3c(c(N(C)C)n2)CCCC3)CC1 [compound 598] | 1 (Class 1: The value of percent of control at 10^−7 M was less than 40% or the value of IC50 was less than 50 nM.)
19 | CN(C)c1nc(N[C@H]2CC[C@@H](CNC(=O)c3ccc(F)cc3)CC2)nc2c1CCCC2 [compound 599] | 3 (Class 3 The value of percent of control at 10^−7 M was more than 60% or the value of IC50 was more than 200 nM.)
20 | CN(C)c1nc(N[C@H]2CC[C@@H](CNC(=O)c3cc(F)cc(C(F)(F)F)c3)CC2)nc2c1CCCC2 [compound 600] | 3 (Class 3 The value of percent of control at 10^−7 M was more than 60% or the value of IC50 was more than 200 nM.)
21 | CN(C)c1nc(N[C@H]2CC[C@@H](CNC(=O)c3cc(F)c(Cl)cc3Cl)CC2)nc2c1CCCC2 [compound 601] | 3 (Class 3 The value of percent of control at 10^−7 M was more than 60% or the value of IC50 was more than 200 nM.)

Same assay, conditions: class by percent of control at 10^-7 M or IC50

Row | SMILES | class
22 | CCCCCC(=O)NC[C@H]1CC[C@@H](Nc2nc3c(c(N(C)C)n2)CCCC3)CC1 [compound 602] | 3 (Class 3 The value of percent of control at 10^−7 M was more than 60% or the value of IC50 was more than 200 nM.)
23 | CN(C)c1nc(N[C@H]2CC[C@@H](CNC(=O)c3ccc(I)cc3)CC2)nc2c1CCCC2 [compound 603] | 3 (Class 3 The value of percent of control at 10^−7 M was more than 60% or the value of IC50 was more than 200 nM.)
24 | CSc1ncccc1C(=O)NC[C@H]1CC[C@@H](Nc2nc3c(c(N(C)C)n2)CCCC3)CC1 [compound 604] | 3 (Class 3 The value of percent of control at 10^−7 M was more than 60% or the value of IC50 was more than 200 nM.)
25 | Cc1ccc(C(=O)NC[C@H]2CC[C@@H](Nc3nc4c(c(N(C)C)n3)CCCC4)CC2)cc1[N+](=O)[O-] [compound 605] | 3 (Class 3 The value of percent of control at 10^−7 M was more than 60% or the value of IC50 was more than 200 nM.)
26 | CN(C)c1nc(N[C@H]2CC[C@@H](CNC(=O)c3cccc([N+](=O)[O-])c3)CC2)nc2c1CCCC2 [compound 606] | 3 (Class 3 The value of percent of control at 10^−7 M was more than 60% or the value of IC50 was more than 200 nM.)
27 | CN(C)c1nc(N[C@H]2CC[C@@H](CNC(=O)Cc3ccccc3)CC2)nc2c1CCCC2 [compound 607] | 3 (Class 3 The value of percent of control at 10^−7 M was more than 60% or the value of IC50 was more than 200 nM.)
28 | CN(C)c1nc(N[C@H]2CC[C@@H](CNC(=O)C3C[C@H]3c3ccccc3)CC2)nc2c1CCCC2 (stereo partly drawn) [compound 608] | 3 (Class 3 The value of percent of control at 10^−7 M was more than 60% or the value of IC50 was more than 200 nM.)
29 | CN(C)c1nc(N[C@H]2CC[C@@H](CNC(=O)c3ccc4c(c3)OCO4)CC2)nc2c1CCCC2 [compound 609] | 3 (Class 3 The value of percent of control at 10^−7 M was more than 60% or the value of IC50 was more than 200 nM.)
30 | Cc1cccc(C(=O)NC[C@H]2CC[C@@H](Nc3nc4c(c(N(C)C)n3)CCCC4)CC2)c1 [compound 612] | 3 (Class 3 The value of percent of control at 10^−7 M was more than 60% or the value of IC50 was more than 200 nM.)
